# Laboratory results: US7647217B2, “Structure of the farnesoid X receptor ligand binding domain and methods of use therefor” (The Salk Institute for Biological Studies, priority 2002, dated 2010)
# Tests used:
# [1] = target: T1, FXR ligand-binding domain (Homo sapiens, UniProt Q96RI1); experiment: FRET-based coactivator (SRC-1 peptide) binding assay; format: biochemical; details: for EC50: agonist mode, 8 nM GST-FXR LBD, 16 nM SRC-1 peptide, read-out: EC50 of SRC-1 peptide recruitment
# T1 construct: made in house; host or cells: E. coli BL21 (DE3)
# T1 sequence (Q96RI1 258-486): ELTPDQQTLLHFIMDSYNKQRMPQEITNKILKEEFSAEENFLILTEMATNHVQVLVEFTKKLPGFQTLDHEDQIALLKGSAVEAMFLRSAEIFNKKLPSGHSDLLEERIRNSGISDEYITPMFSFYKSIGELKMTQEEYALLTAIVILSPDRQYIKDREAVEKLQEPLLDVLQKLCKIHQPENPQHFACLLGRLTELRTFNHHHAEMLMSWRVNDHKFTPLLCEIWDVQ
# Description: Increasing amounts of the compounds were added as indicated. Binding reactions contained 8 nM Europium labeled GST-FXR ligand-binding domain fusion protein and 16 nM allophycocyanin-labeled SRC-1 receptor binding peptide. Results are expressed at 1000*(665 nm/615 nm).
# Standard PCR amplifications of the LBD of human FXR (residues 248 to 476) and sub-cloning techniques were used to generate pGEX Glutathione-s-transferase (GST) and pHIS8-3 (Jez et al. (2000) Dissection of malonyl-coenzyme A decarboxylation from polyketide formation in the reaction mechanism of a plant polyketide synthase. Biochemistry 39, 890-902) prokaryote protein expression vectors. DNA fragments containing hFXR aa248 to 476 were cloned into the BamHI site of pGEX-hFXR, while the cloning sites NcoI and BamHI sites were used in pHIS8-3.
# To determine if the compounds identified as ligands could promote the association of FXR with co-activators in vitro, a fluorescence resonance energy transfer (FRET)-based coactivator binding assay was employed (see, for example, Makishima et al. (1999), supra; Urizar et al. (2002). A natural product that lowers cholesterol as an antagonist ligand for FXR. Science. 296(5573), 1703-6). This assay relies on an agonist-induced interaction between the nuclear receptor and its coactivator bringing two fluorogenic partners together resulting in the nuclear receptor ligand-dependent FRET.
# hPXR = target: T2, hPXR (Homo sapiens, UniProt O75469); experiment: GAL4 chimeric NHR cross-reactivity assay; format: cell-based; details: 10 μM
# T2 construct: expressed in transfected cells; host or cells: CV-1 (monkey)
# T2 sequence (O75469 146-433 limits assumed): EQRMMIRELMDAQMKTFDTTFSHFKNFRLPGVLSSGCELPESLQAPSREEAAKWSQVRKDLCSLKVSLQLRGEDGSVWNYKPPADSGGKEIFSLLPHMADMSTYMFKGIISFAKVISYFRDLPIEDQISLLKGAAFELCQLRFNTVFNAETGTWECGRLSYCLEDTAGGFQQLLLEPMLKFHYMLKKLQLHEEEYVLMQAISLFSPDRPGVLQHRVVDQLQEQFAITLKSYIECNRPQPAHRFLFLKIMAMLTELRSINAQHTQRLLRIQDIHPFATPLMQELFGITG
# Description: FIGS. 3A-3E collectively show the results of ligand activation of CV-1 cells co-transfected with a luciferase reporter gene with a variety of receptor expression constructs. […] FIGS. 3C-3E show the results of CV-1 cells transiently transfected with the indicated reporter constructs, treated with either DMSO or 10 μM of the compounds fexaramine (3C), fexarine (3D), fexarene (3E). Reporter activity was normalized to the internal control and the data plotted as fold activation relative to untreated cells. All transfections contained CMX-βgal as an internal control.
# The expression plasmids pCMX, pCMX-LacZ, pCMX-mFXRFL, pCMX-hRXRFL, pCMX-GALDBD-rFXRLBD and other pCUX-GALDBD-NR LBDs (hRXRα, hPPARαγδ, mPXR, hPXR, hLXRα, HTRβ, hRARβ, mCAR, mERR3 and hVDR) have been described elsewhere (Blumberg et al. (1998). SXR, a novel steroid and xenobiotic-sensing nuclear receptor. Genes Dev. 12(20), 3195-205). The reporter plasmids pMH2004-TK-luc, pTKECRE*6-luc, pTKER-8*2-luc and pMRP-2-luc also have been described elsewhere. The hPLTP-luc promoter was kindly provided by Dr Dennis Dowhan and the hIBABP-luc promoter was created from a plasmid provided by Dr Philippe Besnard.
# Cell-based transcriptional activation assays using chimeric nuclear hormone receptor (NHR) constructs were established to measure the selectivity of the compounds to FXR relative to other NHRs (Forman et al. (1995). Identification of a nuclear receptor that is activated by farnesol metabolites. Cell 81, 687-693). These assays used fusion proteins with the yeast GAL4 DNA binding domain connected to the ligand-binding domain (LBD) of NHRs. These constructs were co-transfected with a thymidine kinase C minimal promoter reporter vector containing four copies of the GAL4 binding site. Titration experiments were then performed using the identified compounds. […] Addition of RXR had no effect on the activation potential of fexaramine, fexarine, fexarene in this assay.
# No activity was observed on other chimeric NHR constructs including hRXRα, hPPARαγδ, mPXR, hPXR, hLXRα, hTRβ, hRARβ, mCAR, mERR3 and hVDR (see FIGS. 3C-3E).
Compound,EC50 [1] [nM],activity on chimeric hPXR construct (hPXR),recruitment of SRC-1 peptide [1]
COC(=O)/C=C/c1cccc(N(Cc2ccc(-c3ccc(N(C)C)cc3)cc2)C(=O)C2CCCCC2)c1 [fexaramine],255,,
COC(=O)/C=C/c1cccc(N(Cc2ccc(/C=C/c3ccccc3)cc2)C(=O)C2CCCCC2)c1 [fexarene],~255,No activity,
COC(=O)/C=C/c1cccc(N(Cc2ccc(-c3ccc4c(c3)OCO4)cc2)C(=O)C2CCCCC2)c1 [fexarine],222,No activity,
COC(=O)/C=C/c1cccc(N(Cc2ccc(-c3ccccc3OC)cc2)C(=O)C(C)C)c1 [SRI-1],,,Weaker recruitment
COC(=O)/C=C/c1cccc(N(Cc2ccc(-c3ccc(C(C)(C)C)cc3)cc2)C(=O)C(C)C)c1 [SRI-2],,,Weaker recruitment
